Test results published in paper PMC10117725, “From an Hsp90 - binding protein to a peptide drug” (microLife, 2022).

Experiments:
S. aureus Newman = assay: Galleria mellonella larvae infection model, S. aureus Newman; type: in vivo
Method: (§1) Galleria mellonella larvae, purchased from Feeders & more GmbH, Germany, were sorted based on weight and used within one week. Ten larvae per group with weight average of 500 mg/larvae were injected with bacteria and/or peptides on its last proleg using a BD insulin syringe. The dosage used for the experiment were 60 mg/kg for peptides, 5 mg/kg of geldanamycin and 20 mg/kg for vancomycin. Each larva was injected with 10 µl of L15 (last left proleg) 1 h before administration of 10^6 cfu S. aureus (last right proleg). The larvae were maintained at 37°C and observed for mortality every day over the course of 5 days.

[1] = system: S. aureus USA300 infected PBMCs; assay: Cytokine release of S. aureus USA300 infected PBMCs (ELISA); type: cell-based, human; conditions: L15 20 µM, L13 30 µM, geldanamycin 5 µM, 20 h, vs unstimulated infected PBMCs
HaCaT cells = assay: MTT cytotoxicity in HaCaT cells; type: cell-based, human; conditions: MTT, 24 h, 1–200 µM
Method: (§2) MTT (3-(4,5-dimethylthiazol-2-yl)-2,5-diphenyl tetrazolium bromide) assay was employed to analyze the cytotoxicity of peptides and geldanamycin to the cells. 5 × 10^5 cells were seeded in a 96 flat bottom well plate and incubated for 2.5 or 24 h at 37°C with 5% CO2. The cells were then treated with increasing concentration (0 to 200 µM) of peptides or geldanamycin for 24 h. After the incubation, 10 μl of the MTT labelling reagent is added to each well to attain a final concentration 0.5 mg/ml, followed by 4 h incubation. Metabolically active cells convert the yellow tetrazolium salt to purple formazan crystals, which were solubilized using the solubilization solution (DMSO) and measured for absorbance at λmax/λref–570/690 nm (Saising et al. [2018]).

[2] = system: phagocytosis by primary human CD14+ monocytes; assay: Phagocytosis of S. aureus USA300 by CD14+ monocytes; type: cell-based; conditions: L15 20 µM, L13 30 µM, geldanamycin 5 µM, 60 min preincubation; MOI 30, 90 min; n = 4 donors; SEM
Method: Peripheral Blood Mononuclear cells (PBMCs) were isolated by density gradient centrifugation following the previous study (Nguyen et al. [2022]). From the pool of PBMCs, monocytes were isolated by positive selection with anti-human CD14 microbeads (Miltenyi Biotech, Bergisch-Gladbach, Germany) following a previously reported protocol (Nguyen et al. [2022]). The purity was analysed by flow cytometry on a BD Accuri C6 (BD Biosciences, Heidelberg, Germany) with anti-human CD14-FITC, CD45-PE and propidium iodide (BD Biosciences, Heidelberg, Germany) and ranged from 85% to 98%.
For the phagocytosis, 10^6 CD14^+ monocytes were seeded in 1 ml of medium (RPMI supplemented with L-Glutamine and 10% FCS) in a 12 well plate (Greiner, Germany). The cells were incubated with 20 µM of L15, 30 µM of L13, or 5 µM of Geldanamycin for 60 min at 37°C and 5% CO2 before addition of bacteria. For the phagocytosis assay, bacterial cells were resuspended in 100 µl RPMI medium at MOI of 30 and incubated with monocytes for 90 min. The cells were washed once with PBS and 0.5 ml of medium supplemented with 2.5 µg/ml of Lysostaphin was added for 90 min to remove the extracellular bacteria. Then, monocytes were washed twice with PBS and resuspended in 0.5 ml of milliQ dH2O. The cells were scraped, and the lysed solution was transferred into a new 1.5 ml Eppendorf tube for a 5 min sonication (frequency 80, power 100) at room temperature to prevent the bacterial cell clumping by using ultrasonic water bath Elmasonic P (Elma Schmidbauer Gmb, Singen, Germany). About 10 µl fractions of undiluted, 10^−1, 10^−2, and 10^−3 dilutions were inoculated on tryptic soy agar (TSA) plates and incubated overnight at 37°C. The numbers of internalized bacteria were determined based on the manual counting of bacterial colony forming units (cfu) recovered on the agar plates.

[3] = system: Galleria mellonella larvae; assay: Toxicity of tested doses to Galleria mellonella larvae
Method: as §1

[4] = system: S. aureus USA300 internalization by HaCaT cells; assay: S. aureus USA300 invasion (internalization) into HaCaT keratinocytes; type: cell-based, human
Method: The invasion protocol was adapted from our previous papers (Nguyen et al. [2015], Tribelli et al. [2020]). About 5 × 10^5 Keratinocytes were seeded in a 24 well plate (Greiner, Frickenhausen, Germany) to attain a monolayer of ∼10^6 cells/well. Staphylococcusaureus was grown overnight at 37°C, centrifuged and suspended in invasion medium (DMEM with 10% FBS for HaCaT and K-SFM for NTERT-1 cells). The adherent keratinocytes were […], or 5 µM geldanamycin (Sigma-Aldrich, Germany) or monoclonal antibodies specific against Hsp90α (α‐Hsp90α, Abcam) for 1 h. After 1 h, 100 µl of bacterial suspension was added to each well to attain a MOI (multiplicity of infection) of 30 and incubated with cells for 1.5 h. Subsequently, the extracellular bacteria were killed with treatment of 2.5 μg/ml lysostaphin (Sigma-Aldrich, Germany) for 1.5 h. The cells were then washed, lysed, mechanically detached by scraping, diluted, and enumerated on TSA (Tryptic Soy Agar) plates to quantify the intracellular bacteria.

[5] = system: F-actin levels in N/TERT-1 cells; assay: F-actin measurement (ActinGreen 488 fluorescence) in N/TERT-1 cells; type: cell-based, human; conditions: L15 20 µM, L13 30 µM, geldanamycin 5 µM; 1.5 h; relative to control
Method: (§3) About 5 × 10^4 cells were seeded in black flat bottom 96 well cell culture microplate (Greiner, Germany) and incubated overnight. The cells were then incubated with peptides or geldanamycin for 1.5 h. After incubation, the cells were washed, permeabilised with 0.1% (v/v) Triton X-100 and stained with ActinGreen™ 488 ReadyProbes® (Thermo Fischer, Germany) for 30 min. After the staining, the cells were washed and measure for its fluorescence at Excitation/Emission: 495/518 nm (Luqman et al. [2020]).

MONO-MAC-6 (MM6) cells = assay: MTT cytotoxicity in MM6 cells; type: cell-based, human; conditions: 24 h, 1–200 µM
Method: as §2

[6] = system: F-actin levels in HaCaT cells; assay: F-actin measurement (ActinGreen 488 fluorescence) in HaCaT cells; type: cell-based, human; conditions: 35 µg/ml peptide (L15 20 µM, L13 30 µM), geldanamycin 5 µM; 1.5 h; ActinGreen 488 fluorescence relative to control
Method: as §3

[7] = system: S. aureus USA300 invasion into N/TERT-1 cells; assay: S. aureus USA300 invasion into N/TERT-1 keratinocytes; type: cell-based, human; conditions: pretreatment with L15 20 µM, L13 30 µM, geldanamycin 5 µM or α-Hsp90α antibody
Method: The invasion protocol was adapted from our previous papers (Nguyen et al. [2015], Tribelli et al. [2020]). About 5 × 10^5 Keratinocytes were seeded in a 24 well plate (Greiner, Frickenhausen, Germany) to attain a monolayer of ∼10^6 cells/well. Staphylococcusaureus was grown overnight at 37°C, centrifuged and suspended in invasion medium (DMEM with 10% FBS for HaCaT and K-SFM for NTERT-1 cells). The adherent keratinocytes were washed with PBS and supplemented with invasion medium followed by treatment with 20 µM of L15, 30 µM of L13, or 5 µM geldanamycin (Sigma-Aldrich, Germany) or monoclonal antibodies specific against Hsp90α (α‐Hsp90α, Abcam) for 1 h. After 1 h, 100 µl of bacterial suspension was added to each well to attain a MOI (multiplicity of infection) of 30 and incubated with cells for 1.5 h. Subsequently, the extracellular bacteria were killed with treatment of 2.5 μg/ml lysostaphin (Sigma-Aldrich, Germany) for 1.5 h. The cells were then washed, lysed, mechanically detached by scraping, diluted, and enumerated on TSA (Tryptic Soy Agar) plates to quantify the intracellular bacteria.

Hsp90α = biological target: T1, Hsp90α (Homo sapiens, UniProt P07900); type: binding; conditions: dot blot, 2 µg blotted on membrane, 20 µg recombinant Hsp90α at 4°C overnight, α-Hsp90α immunodetection
T1 construct: purchased Abcam
Method: Two µg of each peptide was blotted (dot blot) directly on PDV nitrocellulose membrane and blocked with ROTI®Block (Carl Roth, Germany). After washing, the membrane was then incubated with 20 μg of recombinant Hsp90α (Abcam)/Lpl1-his protein at 4°C overnight. In case of interaction studies with Hsp90α, α-Hsp90α (produced in mouse, Abcam) was used as the primary antibody and for interaction studies with Lpl1-his, Anti-6X His tag antibody (also produced in mouse, Sigma-Aldrich, Germany) was used. Alkaline phosphatase conjugated goat-α-mouse IgG (Sigma-Aldrich, Germany) served as the secondary antibody. Detection was done using BCIP®/NBT solution (Sigma, Germany). Lpl1-his was isolated and purified as described in our previous paper (Tribelli et al. [2020]).

For `COC1=C2C[C@@H](C)C[C@H](OC)[C@H](O)[C@@H](C)/C=C(\C)[C@H](OC(N)=O)[C@@H](OC)/C=C\C=C(/C)C(=O)NC(=CC1=O)C2=O` [Geldanamycin, geldanamycin, reference compound], the “effect on survival of infected larvae” value (S. aureus Newman; geldanamycin 5 mg/kg 1 h before infection, strain not restated in the sentence) was “no or rather a negative effect on survival”, the “TNF-alpha production of infected PBMCs” value ([1]; n = 4) was “inhibited” and the “IL-6 production of infected PBMCs” value ([1]; n = 5) was “inhibited”. The “concentration from which viability decreased gradually, HaCaT” value (HaCaT cells) was ≥ 50 µM, the “decrease of phagocytosis of S. aureus into CD14+ monocytes” value [2] was “no significant impact” and the “toxicity of tested doses to larvae” value ([3]; in vivo) was “not toxic to larvae”. For the same compound, the “decrease in uptake/invasion of S. aureus USA300 by HaCaT cells compared to untreated control” value ([4]; preincubation with L15 20 µM, L13 30 µM, geldanamycin 5 µM or α-Hsp90α antibody, MOI 30) was “approximately 75%”, the “relative F-actin content in N/TERT-1 cells” value [5] was 0.82 ± 0.03 and the “concentration from which viability decreased, MM6” value (MONO-MAC-6 (MM6) cells) was ≥ 10 µM. The “Relative F-actin level in HaCaT” value [6] was 0.88 ± 0.03 and the “invasion of S. aureus USA300 into N/TERT-1 cells” value [7] was “reduced USA300 invasion”.
For GKGNETKED [L1, Lpl1-derived peptide], the “Interaction with Hsp90α” value (Hsp90α) was “No” and the “Relative F-actin level in HaCaT” value [6] was 0.95 ± 0.49.
NKPGEL [L8, Lpl1-derived peptide] was tested, and the “Interaction with Hsp90α” value (Hsp90α) was “No” and the “Relative F-actin level in HaCaT” value [6] was 0.96 ± 0.05.
“DEIVKELRSRYNISTEKSPILKMHIDGDLKGSSVGYRKLEI DFSKRENSKLSVIEFLSYKPAKK [L26, Lpl1-derived peptide that increased S. aureus internalization]” was tested, and the “Interaction with Hsp90α” value (Hsp90α) was “Yes”, the “increase of invasion into HaCaT” value ([4]; positive control peptides, S. aureus USA300) was “approximately 1.5 fold” and the “Relative F-actin level in HaCaT” value [6] was 1.25 ± 0.13.
With EMKNNKIIL [L17, Lpl1-derived peptide] the “Interaction with Hsp90α” value (Hsp90α) was “No” and the “Relative F-actin level in HaCaT” value [6] was 1.09 ± 0.20.
`CN[C@H](CC(C)C)C(=O)N[C@H]1C(=O)N[C@@H](CC(N)=O)C(=O)N[C@H]2C(=O)N[C@H]3C(=O)N[C@H](C(=O)N[C@H](C(=O)O)c4cc(O)cc(O)c4-c4cc3ccc4O)[C@H](O)c3ccc(c(Cl)c3)Oc3cc2cc(c3O[C@@H]2O[C@H](CO)[C@@H](O)[C@H](O)[C@H]2O[C@H]2C[C@](C)(N)[C@H](O)[C@H](C)O2)Oc2ccc(cc2Cl)[C@H]1O` [vancomycin, reference compound] was tested, and the “larvae surviving on day 5, S. aureus Newman” value (S. aureus Newman; peptides 60 mg/kg, vancomycin 20 mg/kg, injected 1 h before 10^6 cfu, 37°C) was 100% and the “toxicity of tested doses to larvae” value ([3]; peptides 60 mg/kg, geldanamycin 5 mg/kg, vancomycin 20 mg/kg) was “not toxic to larvae”.
